Measured values: patent US7667036B2, “Pyrazolo[1,5-a]pyrimidine derivatives” (Teijin Pharma Limited, priority 2004, dated 2010)

target: T1, MAPKAP-K2 (Homo sapiens, UniProt P49137); experiment: MAPKAP-K2 enzyme activity inhibition assay, Method A (33P-ATP, P81 filter plate); type: biochemical; conditions: 10 μmol/L ATP, 30 μmol/L peptide KKLNRTLSVA, 3% DMSO, 30 min room temperature, read-out: Inhibitory activity (MAPKAP-K2 IC50 class)
Description: (§1) The assay of inhibitory activity was performed according to Method A described below for Compound No. 1, 2, 3, 4, 20, 21, 22, 23, 24, 25, 26, 79, 80 and 81, and Method B described below for the other compounds.
A compound was dissolved in DMSO to make its concentration to 10 mmol/L, and further a part of the resulting solution was taken out and stored at −20° C. The stock solution was diluted with DMSO to prepare a stock solution having a 30-fold concentration of the required range. Subsequently the resultant stock solution was diluted to 1:3 to prepare a stock solution having a 10-fold concentration of the required range, and an aliquot of 5 μL of each solution was used for every reaction with 50 μL. During the continuous dilution of all compounds, the final DMSO concentration was maintained at 3% and the solubility of compounds was maximized. Compounds were routinely tested at a final concentration ranging from 300 μmol/L to 0.001 μmol/L, but were sometimes tested at a lower concentration depending upon their activity. (MAPKAP-K2 Enzyme Activity Assay)
The kinase reaction was carried out using a 96-well round-bottomed polypropylene microplate. MAPKAP-Kinase 2 was diluted to 0.5 mU/μL with diluent buffer (50 mmol/L Tris/HCl (pH7.5), 0.1 mmol/L EGTA, 0.1% (v/v) β-mercaptoethanol, and 1 mg/mL BSA). To each well was added 5 μL of a compound or 30% DMSO and subsequently 25 μL of substrate cocktail (final concentration: 10 μmol/L ATP, 30 μmol/L peptide (KKLNRTLSVA), 50 mmol/L 33P-γ-ATP/Tris solution of (pH 7.5, 0.5 μCi), 0.1 mmol/L EGTA, 10 mmol/L magnesium acetate and 0.1% β-mercaptoethanol). To each well was added 20 μL of an enzyme solution or 20 μL of a diluent buffer without contabing enzyme to initiate the reaction, After shaking the plate for 10 sec, it was fibber allowed to stand at room temperature for 30 min. The reaction was terminated with 50 μL of a 150 mmol/L phosphoric acid solution. Then, 90 μL of a reaction mixture solution was transferred to a 96-well P81 filter plate (Whatmann), and incubation was performed at room temperature for 5 min. Subsequently, the filter plate was washed 4 times with 200 μL of a 75 mmol/L phosphoric acid solution per well through a plate suction manifold (Millipore), followed by further drying in an oven for 2 to 3 hrs. Next, after adding Packard Microscint “0” (30 μL) to each well and shaking the plate for 30 min, scintillation measurement was performed using a Packard TopCount scintillation counter. […]

T1 sequence (P49137 whole entry): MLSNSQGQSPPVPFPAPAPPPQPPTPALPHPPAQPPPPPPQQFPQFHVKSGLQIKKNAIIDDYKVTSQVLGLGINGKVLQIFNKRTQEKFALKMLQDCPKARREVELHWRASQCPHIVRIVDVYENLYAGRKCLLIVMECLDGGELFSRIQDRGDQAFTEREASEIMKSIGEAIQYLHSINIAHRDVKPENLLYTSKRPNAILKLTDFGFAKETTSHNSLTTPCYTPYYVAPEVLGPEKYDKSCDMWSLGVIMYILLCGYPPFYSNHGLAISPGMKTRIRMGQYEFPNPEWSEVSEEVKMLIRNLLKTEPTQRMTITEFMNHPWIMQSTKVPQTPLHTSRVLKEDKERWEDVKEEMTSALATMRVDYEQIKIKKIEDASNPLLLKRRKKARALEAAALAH

**Q.** Which IC50 does the source give for `CCOc1ccc(Nc2c(C)c(SC3CCCNC3)nc3ccnn23)cc1` (stereo not shown) [compound 80] here?
**A.** 2 to 20 µM

**Q.** For `CCOc1ccc(Nc2c(C)c(SCCN)nc3ccnn23)cc1` [compound 81], which IC50 is on record?
**A.** 2 to 20 µM

**Q.** `C=CCC1CC(N)CCC1Oc1nc2ccnn2c(Nc2ccc(OCC)cc2)c1C` (stereo not shown) [compound 25] was tested. Which IC50 did it give?
**A.** 2 to 20 µM

**Q.** With `C=CCC1CC(NC)CCC1Oc1nc2ccnn2c(Nc2ccc(OCC)cc2)c1C` (stereo not shown) [compound 26] as the compound, how does the IC50 read?
**A.** 2 to 20 µM

target: T1, MAPKAP-K2; experiment: MAPKAP-K2 enzyme activity inhibition assay, Method B (33P-ATP, MultiScreen-PH plate); type: biochemical; conditions: recombinant human MAPKAP-K2, 0.5% DMSO, 30 min room temperature, read-out: Inhibitory activity (MAPKAP-K2 IC50 class)
Description: as §1
A compound was dissolved in […] to make its concentration to 20 mmol/L, and the resultant solution was stored at −20° C. The stock solution was sequentially diluted with DMSO to prepare a solution having a 200-fold concentration of the required range. Further the solution was diluted with water to 1:20 to prepare a solution having a 10-fold concentration of the required range, and an aliquot of 5 μL of each solution was used for every reaction with 50 μL. During the continuous dilution of all compounds, the final DMSO concentration was maintained at 0.5%. Compounds were routinely tested at a final concentration ranging from 100 μmol/L to 0.03 μmol/L, but were sometimes tested at a lower concentration depending upon their activity.
The reaction was initiated by adding 25 μL of a peptide substrate solution [60 μmol/L substrate peptide, 20 μmol/L ATP, 50 mmol/L Tris buffer (pH 7.5), 0.1 mmol/L EGTA, 0.1% β-mercaptoetanol, 20 mmol/L magnesium acetate, and 0.1 μCi [γ-33P]ATP (specific radio activity: approximately 110 TBq/mmol)] to 5 μL of a 5% DMSO solution of the test compound and subsequently adding 20 μL of a MAPKAP-K2 enzyme solution [10 mU recombinant human MAPKAP-K2, 50 mmol/L Tris buffer (pH 7.5), 0.1 mmol/L EGTA, 0.1% β-mercaptoethanol, 0.1% BSA]. After performing the reaction for 30 min at room temperature, an equivalent volume of 200 mmol/L phosphoric acid solution was added to terminate the reaction. Subsequently, 90 μL of the reaction product was adsorbed on a MultiScreen-PH Plate (Millipore) and then rinsed with 100 mmol/L phosphoric acid solution. After drying the plate, 30 μL of MicroScint-O (Packard BioScience) was added, and further the count per minute was measured by a scintillation counter to determine the inhibitory activity. The substrate peptide was Lys-Lys-Leu-Asn-Arg-Tlr-Leu-Ser-Val-Ala.
• % Control=(X−B)/(Tot−B)×100 • % Inhibition=100—% Control • X=count per minute of a test compound well • B=count per minute of a well without containing enzyme • Tot=count per minute of a well with DMSO solvent only, without containing the test compound (MAPKAP-K2 inhibitory activity) • IC50 value=the compound concentration at 50% inhibition

**Q.** `CCOc1ccc(Nc2c(C)c(OCC3(N)CCCC3)nc3ccnn23)cc1` [compound 40] was tested. Which IC50 did it give?
**A.** 20 to 100 µM

**Q.** `Cc1c(OC2CCCNC2)nc2ccnn2c1Nc1ccc(S(=O)(=O)N2CCOCC2)cc1` (stereo not shown) [compound 61] was tested. Which IC50 did it give?
**A.** 2 to 20 µM

**Q.** `CCOc1ccc(Nc2c(C)c(OC3CNCCC3CO)nc3ccnn23)cc1` (stereo not shown) [compound 58] was tested. Which IC50 did it give?
**A.** 2 to 20 µM

**Q.** With `COc1cc(Nc2c(C)c(OC3CCCNC3)nc3ccnn23)cc(OC)c1` (stereo not shown) [compound 50] as the compound, how does the IC50 read?
**A.** 20 to 100 µM

**Q.** For `CCOc1ccc(Nc2c(C)c(OCCCN)nc3ccnn23)cc1` [compound 29], which IC50 is on record?
**A.** 20 to 100 µM

**Q.** With `Cc1c(O[C@H]2CC[C@@H](N)CC2)nc2ccnn2c1Nc1ccc(I)cc1` [compound 77] as the compound, how does the IC50 read?
**A.** ≤ 2 µM

**Q.** How did the IC50 turn out when `Cc1c(OC2CCCNC2)nc2ccnn2c1Nc1ccc(C#N)c(C(F)(F)F)c1` (stereo not shown) [compound 53] was run?
**A.** 20 to 100 µM

**Q.** For `CCOc1ccc(Nc2c(C)c(OC3CCCNC3)nc3ccnn23)cc1` (stereo not drawn) [Compound No. 5, (dl)-(4-ethoxyphenyl)-[6-methyl-5-(pyperdin-3-yloxy)pyrazolo [1,5-a]pyrimidin-7-yl]-amine], which IC50 is on record?
**A.** 2 to 20 µM

**Q.** How did the IC50 turn out when `CSc1nc2ccc(Nc3c(C)c(OC4CCCNC4)nc4ccnn34)cc2s1` (stereo not shown) [compound 45] was run?
**A.** ≤ 2 µM

**Q.** With `N[C@H]1CC[C@@H](Oc2nc3ccnn3c(Nc3ccc(OCc4ccccc4)cc3)c2-c2ccccc2)CC1` [compound 274] as the compound, how does the IC50 read?
**A.** 2 to 20 µM

**Q.** For `CC(=O)c1ccc(Nc2c(C)c(OC3CCCNC3)nc3ccnn23)cc1` (stereo not shown) [compound 62], which IC50 is on record?
**A.** 2 to 20 µM

**Q.** With `Cc1c(O[C@H]2CC[C@@H](N)CC2)nc2ccnn2c1Nc1ccc(OCCN2CCOCC2)cc1` [compound 90] as the compound, how does the IC50 read?
**A.** ≤ 2 µM

**Q.** How did the IC50 turn out when `CCOc1ccc(Nc2c(C)c(OCC3CCCCN3)nc3ccnn23)cc1` (stereo not shown) [compound 245] was run?
**A.** 20 to 100 µM

**Q.** Which IC50 does the source give for `CCOc1ccc(Nc2c(C)c(OC3CCN(C)CC3)nc3ccnn23)cc1` [compound 253] here?
**A.** 2 to 20 µM

**Q.** Which IC50 does the source give for `CCOc1ccc(Nc2c(C)c(OCCCCN)nc3ccnn23)cc1` [compound 30] here?
**A.** 2 to 20 µM

**Q.** With `CCOc1ccc(Nc2c(-c3ccccc3)c(OCCN)nc3ccnn23)cc1` [compound 273] as the compound, how does the IC50 read?
**A.** 20 to 100 µM

**Q.** With `CCOc1ccc(Nc2c(C)c(OCC(N)(CO)CO)nc3ccnn23)cc1` [compound 43] as the compound, how does the IC50 read?
**A.** 20 to 100 µM

**Q.** For `Cc1c(O[C@H]2CC[C@@H](N)CC2)nc2ccnn2c1Nc1ccc(C(=O)c2ccccc2)cc1` [compound 70], which IC50 is on record?
**A.** ≤ 2 µM

**Q.** Which IC50 does the source give for `CCOc1ccc(Nc2c(C)c(OCCN)nc3ccnn23)cc1` [compound 28] here?
**A.** 20 to 100 µM

**Q.** Which IC50 does the source give for `Cc1c(OCCN)nc2ccnn2c1NCc1ccccc1` [compound 270] here?
**A.** 20 to 100 µM

**Q.** Which IC50 does the source give for `CSc1nc2ccc(Nc3c(C)c(O[C@H]4CC[C@@H](N)CC4)nc4ccnn34)cc2s1` [compound 46] here?
**A.** ≤ 2 µM

**Q.** With `COc1ccc(Nc2ccc(Nc3c(C)c(OC4CCCNC4)nc4ccnn34)cc2)cc1` (stereo not shown) [compound 59] as the compound, how does the IC50 read?
**A.** ≤ 2 µM

**Q.** With `Cc1c(OC2CCCNC2)nc2ccnn2c1NCc1ccccc1` (stereo not shown) [compound 269] as the compound, how does the IC50 read?
**A.** 2 to 20 µM

**Q.** `Cc1c(OC2CCCNC2)nc2ccnn2c1Nc1cc(OC2CCCNC2)c(C#N)cc1F` (stereo not shown) [compound 49] was tested. Which IC50 did it give?
**A.** 20 to 100 µM

**Q.** For `Cc1c(O[C@H]2CC[C@@H](N)CC2)nc2ccnn2c1Nc1cc(F)c(C#N)cc1F` [compound 68], which IC50 is on record?
**A.** 2 to 20 µM

**Q.** With `CCOc1ccc(Nc2c(C)c(O[C@@H]3CNCC[C@H]3CC(=O)N(C)C)nc3ccnn23)cc1` [compound 84] as the compound, how does the IC50 read?
**A.** 2 to 20 µM

**Q.** `CCOc1ccc(Nc2c(C)c(OC(CN)c3ccccc3)nc3ccnn23)cc1` (stereo not shown) [compound 31] was tested. Which IC50 did it give?
**A.** 20 to 100 µM

**Q.** How did the IC50 turn out when `CCOc1ccc(Nc2c(C)c(O[C@@H]3CNCC[C@H]3CC(=O)NC3CC3)nc3ccnn23)cc1` [compound 86] was run?
**A.** 2 to 20 µM

**Q.** Which IC50 does the source give for `Cc1c(OC2CCCNC2)nc2ccnn2c1Nc1ccc2nc(SC(C)C)sc2c1` (stereo not shown) [compound 74] here?
**A.** 2 to 20 µM

**Q.** How did the IC50 turn out when `COC(=O)c1ccc(Nc2c(C)c(O[C@H]3CC[C@@H](N)CC3)nc3ccnn23)cc1` [compound 67] was run?
**A.** 20 to 100 µM
